Measured values taken from US10815244B2, “Isoidide derivatives and methods of making and using same” (Rutgers, the State University of New Jersey, priority 2015, dated 2020).
pIC50: −log10 of the molar value.

Biological target: EGFR kinase (Homo sapiens (Human), UniProt P00533)
Test: EGFR kinase activity, luminescent ATP/ADP detection assay
Format: biochemical
Details: purified EGFR kinase, 10 min incubation, luminescence ADP detection
Experimental: Example RR: EGFR as a Drug Target Assay Conditions
The IC50s of the compounds on EGFR activity were determined using the Luminescent ATP/ADP detection assay system. Briefly, the assay method measures ADP formed from EGFR kinase activity using luminescence derived from ATP-Luciferase detection system. Purified EGFR kinase was incubated with different concentrations of test compound in the kinase reaction buffer for 10 min. The reaction was stopped by depleting the unused ATP in the kinase reaction buffer using the depletion buffer for 40 min. The levels of ADP generated during the kinase reaction was detected by measuring the luminescence using the Luciferase system.

Chain of EGFR kinase (P00533 25-1210): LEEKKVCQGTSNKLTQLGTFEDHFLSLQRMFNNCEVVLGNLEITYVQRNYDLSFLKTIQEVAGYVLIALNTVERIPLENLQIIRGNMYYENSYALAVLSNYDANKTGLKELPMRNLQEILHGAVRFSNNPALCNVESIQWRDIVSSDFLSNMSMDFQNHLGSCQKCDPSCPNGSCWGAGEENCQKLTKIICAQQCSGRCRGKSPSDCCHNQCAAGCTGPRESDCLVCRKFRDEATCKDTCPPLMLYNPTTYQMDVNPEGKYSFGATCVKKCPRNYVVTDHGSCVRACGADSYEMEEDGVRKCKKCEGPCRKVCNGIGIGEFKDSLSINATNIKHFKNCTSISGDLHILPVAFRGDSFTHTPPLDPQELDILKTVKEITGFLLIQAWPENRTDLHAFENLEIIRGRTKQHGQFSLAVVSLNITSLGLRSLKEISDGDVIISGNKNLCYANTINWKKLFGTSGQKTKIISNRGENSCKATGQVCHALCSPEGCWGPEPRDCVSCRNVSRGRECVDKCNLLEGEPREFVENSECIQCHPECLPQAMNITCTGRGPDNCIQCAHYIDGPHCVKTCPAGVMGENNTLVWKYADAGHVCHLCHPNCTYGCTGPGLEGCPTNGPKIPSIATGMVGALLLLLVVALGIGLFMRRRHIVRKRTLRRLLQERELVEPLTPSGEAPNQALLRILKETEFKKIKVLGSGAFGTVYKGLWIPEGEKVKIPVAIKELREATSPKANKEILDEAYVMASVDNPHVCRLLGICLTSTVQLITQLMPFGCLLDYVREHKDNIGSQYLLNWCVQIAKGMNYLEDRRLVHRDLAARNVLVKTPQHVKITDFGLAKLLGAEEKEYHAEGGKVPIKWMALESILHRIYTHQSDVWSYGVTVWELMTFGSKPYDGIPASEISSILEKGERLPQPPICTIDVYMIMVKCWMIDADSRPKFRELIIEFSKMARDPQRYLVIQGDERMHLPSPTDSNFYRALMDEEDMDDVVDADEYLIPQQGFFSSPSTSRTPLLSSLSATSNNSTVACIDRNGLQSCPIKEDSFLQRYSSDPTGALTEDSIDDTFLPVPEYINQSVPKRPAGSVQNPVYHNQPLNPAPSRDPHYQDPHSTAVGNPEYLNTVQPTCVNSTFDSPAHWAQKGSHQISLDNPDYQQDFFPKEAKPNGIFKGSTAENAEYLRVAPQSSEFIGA

pIC50 | EGFR IC50 | SMILES
< 6.30 | – | O=C(O[C@H]1CO[C@H]2[C@@H]1OC[C@@H]2Oc1ccc(Nc2ncnc3ccsc23)cc1Cl)c1ccccc1 [Example EE, [(3S,3aR,6S,6aR)-3-[2-chloro-4-(thieno[3,2-d]pyrimidin-4-ylamino)phenoxy]-2,3,3a,5,6,6a-hexahydrofuro[3,2-b]furan-6-yl] benzoate]
– | Inactive | CC(=O)O[C@H]1CO[C@H]2[C@@H]1OC[C@@H]2Oc1ccnc(NC2CCN(S(C)(=O)=O)CC2)n1 [Example FF, [(3S,3aR,6S,6aR)-3-[2-[(1-methylsulfonyl-4-piperidyl)amino]pyrimidin-4-yl]oxy-2,3,3a,5,6,6a-hexahydrofuro[3,2-b]furan-6-yl] acetate]
– | Inactive | CC(=O)O[C@H]1CO[C@H]2[C@@H]1OC[C@@H]2Oc1ccnc(NC2CCN(S(=O)(=O)c3ccc(C)cc3)CC2)n1 [Example GG, [(3S,3aR,6S,6aR)-3-[2-[(1-tolylsulfonyl-4-piperidyl)amino]pyrimidin-4-yl]oxy-2,3,3a,5,6,6a-hexahydrofuro[3,2-b]furan-6-yl] acetate]
– | Inactive | CC(=O)O[C@H]1CO[C@H]2[C@@H]1OC[C@@H]2Oc1ccnc(NC2CCN(C(=O)C(C)(C)C)CC2)n1 [Example HH, [(3S,3aR,6S,6aR)-3-[2-[[1-(2,2-dimethylpropanoyl)-4-piperidyl]amino]pyrimidin-4-yl]oxy-2,3,3a,5,6,6a-hexahydrofuro[3,2-b]furan-6-yl] acetate]
– | Inactive | CC(=O)O[C@H]1CO[C@H]2[C@@H]1OC[C@@H]2Oc1ccnc(NCc2ccc(F)cc2)n1 [Example II, [(3S,3aR,6S,6aR)-3-[2-[(4-fluorophenyl)methylamino]pyrimidin-4-yl]oxy-2,3,3a,5,6,6a-hexahydrofuro[3,2-b]furan-6-yl] acetate]
– | Inactive | CS(=O)(=O)N1CCC(Nc2nccc(O[C@H]3CO[C@H]4[C@@H]3OC[C@@H]4OC(=O)c3ccccc3)n2)CC1 [Example JJ, [(3S,3aR,6S,6aR)-3-[2-[(1-methylsulfonyl-4-piperidyl)amino]pyrimidin-4-yl]oxy-2,3,3a,5,6,6a-hexahydrofuro[3,2-b]furan-6-yl] benzoate]
– | Inactive | CSc1ncc(Br)c(C(=O)O[C@H]2CO[C@H]3[C@@H]2OC[C@@H]3O)n1 [Example KK, [(3S,3aR,6S,6aR)-3-hydroxy-2,3,3a,5,6,6a-hexahydrofuro[3,2-b]furan-6-yl] 5-bromo-2-methylsulfanyl-pyrimidine-4-carboxylate]
< 7.00 | – | COc1cc2ncnc(Nc3ccc(O[C@H]4CO[C@H]5[C@@H]4OC[C@@H]5O)c(Cl)c3)c2cc1OC [Example T, (3S,3aR,6S,6aR)-6-[2-chloro-4-[(6,7-dimethoxyquinazolin-4-yl)amino]phenoxy]-2,3,3a,5,6,6a-hexahydrofuro[3,2-b]furan-3-ol]
< 7.00 | – | O[C@H]1CO[C@H]2[C@@H]1OC[C@@H]2Oc1ccc(Nc2ncnc3ccsc23)cc1Cl [Example U, (3S,3aR,6S,6aR)-6-[2-chloro-4-(thieno[3,2-d]pyrimidin-4-ylamino)phenoxy]-2,3,3a,5,6,6a-hexahydrofuro[3,2-b]furan-3-ol]
– | Inactive | CSc1nccc(Nc2ccc(O[C@H]3CO[C@H]4[C@@H]3OC[C@@H]4O)c(Cl)c2)n1 [Example V, (3S,3aR,6S,6aR)-6-[2-chloro-4-[(2-methylsulfanylpyrimidin-4-yl)amino]phenoxy]-2,3,3a,5,6,6a-hexahydrofuro[3,2-b]furan-3-ol]
– | Inactive | O[C@H]1CO[C@H]2[C@@H]1OC[C@@H]2Oc1ccc(Nc2ccnc(Nc3ccc(O[C@H]4CO[C@H]5[C@@H]4OC[C@@H]5O)c(Cl)c3)n2)cc1Cl [Example W, (3S,3aR,6S,6aR)-6-[4-[[2-[4-[[(3S,3aR,6S,6aR)-3-hydroxy-2,3,3a,5,6,6a-hexahydrofuro[3,2-b]furan-6-yl]oxy]-3-chloro-anilino]pyrimidin-4-yl]amino]-2-chloro-phenoxy]-2,3,3a,5,6,6a-hexahydrofuro[3,2-b]furan-3-ol]
< 6.30 | – | COc1cc2ncnc(Nc3ccc(O[C@H]4CO[C@H]5[C@@H]4OC[C@@H]5OC(C)=O)cc3)c2cc1OC [Example X, [(3S,3aR,6S,6aR)-3-[4-[(6,7-dimethoxyquinazolin-4-yl)amino]phenoxy]-2,3,3a,5,6,6a-hexahydrofuro[3,2-b]furan-6-yl] acetate]
< 6.00 | – | CC(=O)O[C@H]1CO[C@H]2[C@@H]1OC[C@@H]2Oc1ccc(Nc2ncnc3ccsc23)cc1 [Example Y, [(3S,3aR,6S,6aR)-3-[4-(thieno[3,2-d]pyrimidin-4-ylamino)phenoxy]-2,3,3a,5,6,6a-hexahydrofuro[3,2-b]furan-6-yl] acetate]
< 7.00 | – | COc1cc2ncnc(Nc3ccc(O[C@H]4CO[C@H]5[C@@H]4OC[C@@H]5OCc4ccccc4)cc3)c2cc1OC [Example Z, N-[4-[[(3S,3aR,6S,6aR)-3-benzyloxy-2,3,3a,5,6,6a-hexahydrofuro[3,2-b]furan-6-yl]oxy]phenyl]-6,7-dimethoxy-quinazolin-4-amine]
